Experimental data reported in patent publication US10745370B2, “Farnesyl transferase inhibitors and uses thereof” (MACKAY MEMORIAL HOSPITAL, priority 2016, dated 2020).
“And” between values parts separate entries of the source, which are not always exact repeats. Equal values may be shown once. “Also recorded” adds a separate entry of the source.

How the values were obtained:
[1] = target: T1, rat PFTase (Rattus norvegicus, UniProt Q02293+Q04631); experiment: Inhibition of farnesyl transferase (fluorescence assay); assay type: biochemical; settings: mean ± SD of three independent experiments
T1 construct: purchased Jena Biosciences
Method: The assay was carried out in 384-well microplates with a final volume of 20 μl by the method modified from the previous report (Long et al., 2009). Briefly, 10 nM of rat PFTase (Jena Biosciences, Jena, Germany) was incubated with the tested compound or DMSO (1%) for 15 min, and then the mixture was added in a solution (50 mM Tris-HCl, pH 7.5, 5 mM MgCl2, 5 mM DTT, 0.1 mM ZnCl2, 0.2% octyl-β-D-glucopyranoside (Sigma, St. Louis, Mo.), 10 μM PFTase substrate dansyl-Gly-Cys-Val-Leu-Ser-OH, and 10 μM farnesyl pyrophosphate (Sigma, St. Louis, Mo.)) to initiate the reaction. The reaction was incubated at 37° C. for 30 min, and the fluorescence was detected by a M5 plate reader (Molecular Devices, CA, USA) at 340 nm excitation and 505 nm emission.

[2] = test system: M1 macrophages; experiment: Cell marker expression on M1 macrophages, flow cytometry; assay type: cell-based, human; settings: for CD14: M1 population after treatment: Table 5; for CD80: change in M1 population: Table 6; for CD206: change in M1: Table 7; for CD206 expression on M1 macrophages: control 14.27%; for CD80 expression on M1 macrophages: control 71.34%; for CD14 expression on M1 macrophages: control 99.83%
Method: (§1) M1 differentiation of freshly isolated CD14^+ cells was induced by the addition of lipopolysaccharide (LPS), while M2 differentiation of freshly isolated CD14^+ cells was induced by the addition of IL-4. Then, the present compounds (e.g., Mib-5, 6, 7, 8, 9, or 10) were added at the indicated dosages. 6 days later, the population of the differentiated macrophages were then determined by cell viability analysis.
(§2) The expression of various types of cell markers, such as CD14, CD206, and CD80 expressed on the surface of macrophages, and CD1a, CD14, CD83, and HLA-DR expressed on the dendritic cells, were respectively detected by fluorescein isothiocyanate (FITC) and phycoerythrin (PE)-conjugated monoclonal antibodies in FACS caliber flowcytometer. Monoclonal antibodies used in this examples included anti-CD14 (IgG-FITC), anti-CD206 (IgG-FITC), anti-CD80-PE, anti-CD1a-PE, anti-CD83-PE and anti-human leukocyte antigen (HLA)-DR-PE. Results were analyzed by CellQuest software.

[3] = test system: dendritic cells; experiment: Morphology of dendritic cells by Liu's staining; assay type: cell-based, human; settings: 10 μM, seven days, FIG. 8
Method: (§3) Mononuclear cells (MNCs) were separated from the peripheral blood of healthy donors obtained with written consent by use of Ficoll-Hypaque density centrifugation, followed by positive selection with magnetic anti-CD14 microbeads.
(§4) The isolated CD14^+ cells were cultivated in Minimum Essential Medium (MEM medium) supplemented with 10% fetal bovine serum (FBS), 100 ng/ml granulocyte-macrophage colony-stimulating factor (GM-CSF, Gentaur), and 50 ng/ml interleukin-4 (IL-4, R&D), and kept in an environment of 37° C. with 5% CO2/95% air.
(§5) To evaluate the effects of the present compound on dendritic cells, the CD14^+ cells were respectively treated with 10 μM of test compound (i.e., Mib-5, Mib-6, Mib-7, Mib-8, Mib-9, and Mib-10) on day 1. Then, on day 3, the cultured medium in each well was replenished by adding half the volume of the cultured medium containing the same treatment as indicated above. Then, on day 6, a cytokine cocktail containing IL-1, IL-6, and tumor necrosis factor-α (TNF-α) was added to induce maturation. On day 7, the differentiated dendritic cells were collected and subjected to further assays, including viability assay, morphology observation, and cell marker staining.
(§6) Cells were transferred to a glass coverslide and covered with solution A (0.5 g of methylene blue and 1.7 g of Eosin yellow dissolved in 1,000 ml of ethanol). After 45 seconds, solution B (1.3 g of azure, 1.4 g of methylene blue, 23.38 g of Na2HPO4, 6.5 g of KH2PO4, dissolved in 1,000 ml of distilled water) was added in the proportion of 2 parts of B to 1 part of A. Mixed the solutions well by blowing the surface. The slide was left standing for 90 seconds and then washed off the staining solution rapidly by running water. The morphology of stained cells was then examined under microscope.
(§7) In this example, the effects of the present compounds on dendritic cells were investigated. Briefly, the dendritic cells were respectively treated with 10 μM of Mib-5, Mib-6, Mib-7, Mib-8, or Mib-10. Seven days later, the cells were harvested and subjected to analysis of morphology observation, cell viability, and/or cell marker expression.

[4] = test system: macrophages; experiment: Morphology of macrophages (photographs, Liu's staining); assay type: cell-based, human; settings: for morphology of cells by Liu's staining compared with control cells: FIG. 1 panel C; for cells exhibiting adhesive morphology: FIG. 1 panel A
Method: as §3, §4, §5
(§8) As to the effects of the present compound on macrophages, the CD14^+ cells were cultivated and treated as indicated above except the addition of cytokine cocktail on day 6. The macrophages were collected on day 6 and subjected to further assays, including viability assay, trypan blue exclusion test, morphology observation, cell marker staining, and phagocytotic activity analysis.
as §6

[5] = test system: dendritic cells; experiment: Cell marker expression on dendritic cells, flow cytometry; assay type: cell-based, human; settings: 10 μM; for expression of CD1a, differentiation marker of dendritic cells: FIG. 9; for expression of CD83, maturation marker of dendritic cells: FIG. 10
Method: as §3, §4, §5, §2, §7

[6] = test system: macrophages; experiment: Phagocytosis assay with fluorescent latex beads; assay type: cell-based, human; settings: M1 and/or M2 populations, FIG. 6
Method: as §8
The phagocytic activity of macrophages was measured by using flow cytometric analysis. The green fluorescent latex beads (carboxylate-modified beads with diameter 2 μm) were suspended in PBS solution and added into macrophage culture for 2 hours with vortexa at 37° C. The macrophages were subjected to flow cytometry for measurement of fluorescent intensity

[7] = test system: M1 macrophages; experiment: Differentiation analysis, cell viability of M1 macrophages; assay type: cell-based, human; settings: for Cell viability of M1 macrophages: LPS-induced M1 differentiation, 6 days, control 100%
Method: as §1, with “analysis. The cell viability was measured by cell counting kit-8 (CCK-8, Sigma). The half maximal inhibitory concentrations (IC50) of the test compounds on macrophages or dendritic cells were calculated.” for “analysis.”

[8] = test system: macrophages; experiment: Trypan blue exclusion test on macrophages; assay type: cell-based; settings: trypan blue analysis, FIG. 2
Method: as §3, §4, §5, §8
(§9) The dye exclusion test is used to determine the number of viable cells present in a cell suspension. […] In this test, the cells were first treated with a test compound (i.e., Mib-5, 6, 7, 8, 9 or 10) for a certain period of time (e.g., 72 hours), then the cells were harvested and re-suspended in suitable buffer solution. The cell suspension was then mixed with trypan blue dye and then visually examined to determine whether cells had taken up or excluded the dye. A viable cell will have a clear cytoplasm, whereas a nonviable cell will have a blue cytoplasm. The concentration required to reduce viability by 50% (IC50) after 72 hours was extrapolated from the dose-response curves by different concentrations of the test compound using a second-order polynomial regression model and analyzing with SigmaPlot Software (Systat Software Inc., San Jose, Calif.).

[9] = test system: M2 macrophages; experiment: Differentiation analysis, cell viability of M2 macrophages; assay type: cell-based, human; settings: for Cell viability of M2 macrophages: IL-4-induced M2 differentiation, 6 days, control 100%
Method: as §1, with “analysis. The cell viability was measured by cell counting kit-8 (CCK-8, Sigma). The half maximal inhibitory concentrations (IC50) of the test compounds on macrophages or dendritic cells were calculated.” for “analysis.”

[10] = test system: macrophages; experiment: Cell marker expression on macrophages (total), flow cytometry; assay type: cell-based, human; settings: for total expressed level of CD14: FIG. 3; for level of CD206: FIG. 5; for total level of CD80: compared with the control
Method: as §3, §4, §5, §8, §2

[11] = test system: dendritic cells; experiment: Trypan blue exclusion analysis of dendritic cells; assay type: cell-based, human; settings: 10 μM, seven days, FIG. 7
Method: as §3, §4, §5, §9, §7

[12] = test system: M2 macrophages; experiment: Cell marker expression on M2 macrophages, flow cytometry; assay type: cell-based, human; settings: for CD14: M2 population after treatment: Table 5; for CD80 expression on M2 macrophages: control 47.64%; for CD14 expression on M2 macrophages: control 55.66%; for CD206 expression on M2 macrophages: control 74.49%; for CD80: change in M2 population: Table 6
Method: as §1, §2

| SMILES | IC50 [1] | CD14: M1 population after treatment [2] | CD206 expression on M1 macrophages [2] [%] | CD80 expression on M1 macrophages [2] [%] | CD14 expression on M1 macrophages [2] [%] | dendritic cell morphology compared with control group [3] | morphology of cells by Liu's staining compared with control cells [4] | expression of CD1a, differentiation marker of dendritic cells [5] | expression of CD83, maturation marker of dendritic cells [5] | phagocytic activity compared with control [6] | Cell viability of M1 macrophages [7] [%] | cell viability / cytotoxicity toward macrophages [8] | Cell viability of M2 macrophages [9] [%] | total expressed level of CD14 [10] | level of CD206 [10] | total level of CD80 [10] | levels of viable dendritic cells [11] | CD14: M2 population after treatment [12] | CD80 expression on M2 macrophages [12] [%] | CD14 expression on M2 macrophages [12] [%] | further results |
| --- | --- | --- | --- | --- | --- | --- | --- | --- | --- | --- | --- | --- | --- | --- | --- | --- | --- | --- | --- | --- | --- |
| CSCC[C@H](NC(=O)c1ccc(NC(=O)[C@@H](N)CS)cc1)C(=O)O [FTase Inhibitor II, reference compound] | 0.13 ± 0.03 µM |  |  |  |  |  |  |  |  |  |  |  |  |  |  |  |  |  |  |  |  |
| COC1=CC(=O)[C@@]2(c3cc(=O)c4c(O)cc(OC)cc4o3)[C@H](C[C@]3(C)[C@@H](C(=O)O)CC=C4[C@H]3CCCC4(C)C)C(C)=CC[C@H]2C1=O [Mib-6] | < 10 µM and 4.97 µM | remained relatively unchanged | 4.52 | 6.59 | 86.43 | cell death reflected in morphology changes, and less dendritic process | not significantly affected | inhibited | inhibited | not | 57.2 | slight toxicity; also recorded: no significant cytotoxicity | 90.6 | not affected | increase | significantly reduced | reduced | significant decrease | 41.4 | 91.25 | CD80: change in M1 population [2]: reduction; CD206: change in M1 [2]: significant decrease; morphology and adhesion of treated macrophages ([4]; 10 μM, FIG. 1 panel B): became rounded up, and were less adhesive; change in M1 population of macrophages compared with control ([7]; Table 4): significant reduction; change in M2 population of macrophages compared with control ([9]; Table 4): slight decrease; CD206: change in M2 ([12]; Table 7): increase; CD206 expression on M2 macrophages [12]: 77.78% |
| COC1=CC(=O)[C@@]2(c3cc(=O)c4c(O)cc(O)cc4o3)[C@H](CC=C(C)[C@@H]2C[C@]2(C)[C@@H](C(=O)O)CC=C3[C@H]2CCCC3(C)C)C1=O [Mib-8] | < 10 µM and 5.05 µM | remained relatively unchanged | 11.98 | 60.16 | 99.73 | did not cause any significant changes | not significantly affected | not | not affected | reduced | 79.4 | did not adversely affect cell viability; also recorded: no significant cytotoxicity | 100 | not affected | increase | increased | remained relatively unchanged | significant decrease | 56.66 | 62.34 | CD80: change in M1 population [2]: reduction; CD206: change in M1 [2]: significant decrease; cells exhibiting adhesive morphology ([4]; 10 μM): about 20%; reduction in the M1 population ([7]; compared with control, Table 4): about 20%; change in M2 population of macrophages compared with control ([9]; Table 4): no effect; increase of total level of CD80 as compared with the control [10]: about 2 folds; CD80: change in M2 population [12]: increase; CD206 expression on M2 macrophages [12]: 51.05% |
| COC1=CC(=O)[C@@]2(c3cc(=O)c4ccc(O)cc4o3)[C@H](C[C@]3(C)[C@@H](C(=O)O)CC=C4[C@H]3CCCC4(C)C)C(C)=CC[C@H]2C1=O [Mib-9] | ~47 µM and 47 µM |  |  |  |  |  |  |  |  |  |  |  |  |  |  |  |  |  |  |  |  |
| COC1=CC(=O)[C@@]2(c3cc(=O)c4ccc(O)cc4o3)[C@H](CC=C(C)[C@@H]2C[C@]2(C)[C@@H](C(=O)O)CC=C3[C@H]2CCCC3(C)C)C1=O [Mib-10] | ~28 µM and 27.9 µM | remained relatively unchanged | 15.17 | 84.46 | 99.10 | did not cause any significant changes | not significantly affected | not | not affected | reduced | 82.5 | did not adversely affect cell viability; also recorded: no significant cytotoxicity | 145.5 | not affected | increase | increased | remained relatively unchanged | significant decrease | 59.89 | 57.93 | cells exhibiting adhesive morphology ([4]; 10 μM): about 20%; change in M1 population of macrophages compared with control ([7]; Table 4): decrease; increase of M2 population ([9]; compared with control, Table 4): about 40%; increase of total level of CD80 as compared with the control [10]: about 2 folds; CD80: change in M2 population [12]: increase; CD206 expression on M2 macrophages [12]: 68.80% |
